Assay results reported in patent US8853221B2, “Compounds of estrogen-related receptor modulators and the uses thereof” (Guangzhou Institute of Biomedicine & Health, Chinese …, priority 2008, dated 2014).

What was measured:
GAL-hERRα = molecular target: T1, GAL-hERRα (Homo sapiens, UniProt P11474); test: GAL4-ERRα ligand binding domain luciferase reporter activation assay in 293 FT cells co-transfected with CMV-PGC-1α; assay type: cell-based; conditions: in the presence of CMV-PGC-1α, approximately 24 hours, increasing concentrations (FIG. 1)
T1 construct: expressed in transfected cells; host or cells: 293 FT cells
T1 sequence (P11474 193-421 limits assumed): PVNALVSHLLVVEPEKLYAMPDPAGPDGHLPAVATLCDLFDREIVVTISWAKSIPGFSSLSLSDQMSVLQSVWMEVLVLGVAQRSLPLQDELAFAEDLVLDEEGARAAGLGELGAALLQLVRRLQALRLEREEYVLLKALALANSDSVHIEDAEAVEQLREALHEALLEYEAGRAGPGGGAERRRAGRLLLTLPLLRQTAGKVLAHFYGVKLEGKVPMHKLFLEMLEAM
Text: To test the effect of the compounds on ERR and other nuclear hormone receptors, 293 FT cells were transiently transfected with expression vectors for the receptors along with appropriate reporter constructs according to methods known in the art. Suitable reporter gene constructs are well known to skilled workers in the fields of biochemistry and molecular biology. Other vectors known in the art can be used in the methods of the present invention. GAL4 fusions containing receptor ligand binding domain fragments were constructed by fusing human ERRα, human ERRβ and murine ERRγ ligand binding domain sequences to the C-terminal end of the yeast GAL4 DNA binding domain (amino acids 1-147 accession X85976) to form the expression vectors GAL-hERRα, GAL-L-hERRβ and Gal-mERRγ, respectively. pGAL is a control containing the yeast GAL4 DNA binding domain without receptor sequences. CMV-PGC-1α contains and expressed the PGC-1α coding sequences derived from PGC-1α (accession NM--008904). 293 FT cells for the activation assays were grown in Dulbecco's modified Eagle's medium supplemented with 10% resin charcoal-stripped fetal bovine serum at 37° C. in 5% CO2. One day prior to transfection, cells were plated to 50-80% confluence using phenol red free DMEM-FBS. The cells were transiently transfected by lipofection but other methods of transfection of DNA into cells can be utilized without deviating from the spirit of the invention. Luciferase reporter construct UASgx4-TK-Luc and cytomegalovirus-driven expression vector p-GAL, GAL-hERRα, GAL-L-hERRβ or Gal-mERRγ were added with CMV-PGC-1α. The cells were treated for approximately 24 hours with phenol red free DMEM-FBS containing 0.01% DMSO (control) or 0.01% DMSO with increasing concentrations of DK compounds. […] (FIG. 1).

[1] = test system: PDK4-promoter reporter gene driven by ERRα; test: PDK4-promoter luciferase reporter gene assay driven by ERRα in HeLa cells; assay type: cell-based, human; conditions: 10 uM, approximately 24 hours (FIG. 2)
Text: (§1) HeLa were transiently transfected with the pGL3-promoter (Promega) derivative pGL3-PGC1α-promoter or PDK4-Promega and expression vector for ERRα. The Renilla-Luciferase pRL-CMV Vector (Promega) was included as a control for transfection efficiency. The full length human ERRα was cloned into the expression vector pCMV. The pGL3-PGC1α-promoter or PDK4-promoter was generated by cloning an insert derived from a PCR reaction using human genomic DNA as template and primers based on the 2.6 kbp upstream sequence of the PGC1α transcriptional start site.
(§2) HeLa cells for the activation assays were grown in Dulbecco's modified Eagle's medium supplemented with 10% fetal bovine serum at 37° C. in 5% CO2. One day prior to transfection, cells were plated to 50-80% confluence using DMEM-FBS. The cells were transiently transfected by lipofection but other methods of transfection of DNA into cells can be utilized without deviating from the spirit of the invention. Luciferase reporter construct pGL3-PGC1α-promoter or PDK4-promoter and cytomegalovirus-driven expression vector pCMV or pCMV-hERRα were added. The cells were treated for approximately 24 hours with DMEM-FBS containing 0.01% DMSO (control) or 0.01% DMSO with 10 uM DK45 compound.

high-fat-diet mice [2] = test: Non-fasting blood glucose level in high-fat-diet mice; assay type: in vivo, C57BL/J6 mice; conditions: 5 mg/kg/day by gavage for two weeks, non-fasting (FIG. 4)
[3] = test system: PGC1α-promoter reporter gene driven by ERRα; test: PGC1α-promoter luciferase reporter gene assay driven by ERRα in HeLa cells; assay type: cell-based, human; conditions: 10 uM, approximately 24 hours (FIG. 2)
Text: as §1, §2

high-fat-diet mice [4] = test: Insulin resistance (insulin tolerance) test in high-fat-diet mice; assay type: in vivo, C57BL/J6 mice; conditions: 5 mg/kg/day by gavage, fasted 5 h, insulin 0.75 IU/kg (FIG. 5)
Procedure: (§3) Seven weeks old male C57BL/J6 mice were either fed chow diet or a high-fat-diet with 60% calories from lard for 10 weeks. Compounds were administered to animals by gavage for two weeks at different doses. Four groups of animals (n=5) were administered with either vehicle, 5 mg/kg/day rosiglitazone, or 5 mg/kg/day DK45. Animals were fasted for 5 h, and then orally fed glucose. Blood samples were withdrawn at time 0, 15, 30, 60 and 120 min. Blood glucose level was measured by monitor (Accu-chek Advantage, Roche). The changes in blood glucose level were plotted against time and the areas under the curve were calculated for the different groups.
In addition, insullin resistance test was administered. Animals were fasted for 5 h, and then injected insulin (0.75 IU/kg). Blood samples were withdrawn at time 0, 15, 30, 60 and 120 min. Blood glucose level was measured by monitor (Accu-chek Advantage, Roche). The changes in blood glucose level were plotted against time and the areas under the curve were calculated for the different groups.
(§4) The blood insulin levels of fasting and non-fasting treatments also indicate that DK45 at 5 mg/kg/day reduced the blood insulin levels of non-fasting treatments (FIG. 6).

high-fat-diet mice [5] = test: Blood insulin level in high-fat-diet mice; assay type: in vivo, C57BL/J6 mice; conditions: 5 mg/kg/day by gavage, non-fasting (FIG. 6)
Procedure: as §3, §4

high-fat-diet mice [6] = test: Serum free fatty acid, cholesterol and triglyceride levels in high-fat-diet mice; assay type: in vivo, C57BL/J6 mice; conditions: 5 mg/kg/day
Procedure: as §3
Moreover, DK45 at 5 mg/kg/day reduced serum free fatty acid (FIG. 7), cholesterol (FIG. 8), and triglyceride levels (FIG. 9) of non-fasting treatments.

high-fat-diet mice [7] = test: Oral glucose tolerance test in high-fat-diet mice; assay type: in vivo, C57BL/J6 mice; conditions: 5 mg/kg/day by gavage for two weeks, fasted 5 h (FIG. 3)
Procedure: as §3

Row | activity of GAL-hERRα on reporter construct UASgx4-TK-Luc (GAL-hERRα) | SMILES | PDK4-promoter reporter gene driven by ERRα [1] | blood glucose levels, non-fasting (high-fat-diet mice [2]) | PGC1α-promoter reporter gene driven by ERRα [3] | area under the curve of the insulin resistance test (high-fat-diet mice [4]) | blood insulin levels of non-fasting treatments (high-fat-diet mice [5]) | serum free fatty acid (high-fat-diet mice [6]; non-fasting (FIG. 7)) | serum cholesterol (high-fat-diet mice [6]; non-fasting (FIG. 8)) | serum triglyceride levels (high-fat-diet mice [6]; non-fasting (FIG. 9)) | area under the curve of the oral glucose tolerance test (high-fat-diet mice [7])
1 | dose-dependently enhances | COc1ccn2c(=O)cc(-c3ccccc3)nc2c1 [DK36, 8-methoxy-2-phenyl-4H-pyrido[1,2-a]pyrimidin-4-one] |  |  |  |  |  |  |  |  | 
2 | dose-dependently enhances | CCc1ccn2c(=O)cc(-c3ccccc3)nc2c1 [DK45, 8-ethyl-2-phenyl-4H-pyrido[1,2-a]pyrimidin-4-one] | enhancement | reduced | enhancement | reduced | reduced | reduced | reduced | reduced | reduced
3 | dose-dependently enhances | CC(C)Oc1ccn2c(=O)cc(-c3ccccc3)nc2c1 [DK41, 8-isopropoxy-2-phenyl-4H-pyrido[1,2-a]pyrimidin-4-one] |  |  |  |  |  |  |  |  | 
